Reference: patent US12077483B2, “Modified amine lipids” (Intellia Therapeutics, Inc., priority 2018, dated 2024)
“And” between values parts separate entries of the source, which are not always exact repeats. Identical values can stand only once.

What was measured:
[1] = pKa of amine lipid by TNS fluorescence; assay type: physicochemical; details: probe TNS (6-(p-toluidino)-2-naphthalenesulfonic acid sodium salt), unformulated amine lipid in ethanol, sodium phosphate buffers -9.0
In short: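 pKa derived from a sigmoidal fit of normalized TNS fluorescence (321 nm excitation, 448 nm emission) versus pH. Lipid from ethanol stock diluted to about 100 μM final in 0.1 M phosphate buffers, pH 4.5–9.0.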

[2] = LNP average particle size and polydispersity by dynamic light scattering; assay type: physicochemical
In short: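 LNPs were diluted in PBS to a count rate of about 200-400 kcps and measured by DLS on a Zetasizer. Size is the intensity-weighted Z-average diameter, reported with number-average diameter, and the polydispersity index describes the spread of sizes around the mean.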

[3] = RNA encapsulation efficiency of LNP (Ribogreen fluorescence assay); assay type: physicochemical
In short: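 LNP samples diluted in 1× TE with or without 0.2% Triton-X 100 for total or free RNA, stained ~10 min at room temperature in the dark with RiboGreen; fluorescence ex 488/em 525 nm against RNA standard curves. Encapsulation efficiency = (Total RNA−Free RNA)/Total RNA.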

[4] = system: mouse TTR; assay: Serum TTR ELISA in mice after LNP delivery; assay type: in vivo; details: for Serum TTR: Exp. 1, 8, 9, 10
In short: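 Mouse TTR in serum was quantified by ELISA (samples diluted e.g. 10,000- and/or 2,500-fold) 6–7 days after dosing CD-1 females with LNP, typically 0.1 mpk. Values are reported relative to vehicle-treated controls (%).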

[5] = LNP with the compound as amine lipid, Expt. 7, composition ratio (mol %) 50/9/38/3 for Cmpnd 49, 50/10/38.5/1.5 for the others
[6] = mouse serum, relative to TSS control of same experiment, dose 0.03 mpk
[7] = mouse serum, relative to TSS control of same experiment, dose 0.1 mpk
[8] = LNP with the compound as amine lipid, Expt. 4, composition ratio (mol %) 50/9/38/3 for Cmpnd 49, 50/10/38.5/1.5 for the others
[9] = Table 3, guide G282, CD-1 female mice, 0.1 mpk i.v.
[10] = Table 3, guide G282, CD-1 female mice, 0.1 mpk i.v., percentage of vehicle control (TSS)
[11] = LNP with the compound as amine lipid, Expt. 2, composition ratio (mol %) 50/9/39.5/3 for Cmpnd 49, 50/9/39.5/1.5 for the others
[12] = Table 10, LNP with G00534 sgRNA:Cas9 mRNA 1:2 w/w

SMILES | pKa [1] | Num Ave Size (nm) [2, 5] | PDI [2, 5] | Z-Ave Size (nm) [2, 5] | Encapsulation (%) [3, 5] | Serum TTR % TSS [4, 6] | Serum TTR % TSS [4, 7] | Num Ave Size (nm) [2, 8] | PDI [2, 8] | Z-Ave Size (nm) [2, 8] | Encapsulation (%) [3, 8] | Serum TTR [4, 9] | Serum TTR % TSS [4, 10] | also measured
CCCCC/C=C\C/C=C\CCCCCCCC(=O)OCC(COC(=O)CCCCCCC/C=C\C/C=C\CCCCC)OC(=O)CCC(CCCCCCCC)OC(=O)OCCCN1CCCC1 (stereo not shown) [Compound 36, 2-((4-(((3-(pyrrolidin-1-yl)propoxy)carbonyl)oxy)dodecanoyl)oxy)propane-1,3-diyl (9Z,9′Z,12Z,12′Z)-bis(octadeca-9,12-dienoate)] | 6.13 | 58.34 nm | 0.058 | 75.9 nm | 98% | 75.785 % TSS | 43.824 % TSS | – | – | – | – | – | – | –
CCCCC/C=C\C/C=C\CCCCCCCC(=O)OCC(COC(=O)CCCCCCC/C=C\C/C=C\CCCCC)OC(=O)CCC(CCCCCCCCCC)OC(=O)NCCN(C)CC (stereo not shown) [Compound 39, 2-((4-(((2-(ethyl(methyl)amino)ethyl)carbamoyl)oxy)tetradecanoyl)oxy)propane-1,3-diyl (9Z,9′Z,12Z,12′Z)-bis(octadeca-9,12-dienoate)] | 6.32 | – | – | – | – | 41% TSS | 6% TSS | 73.52 nm | 0.015 | 89.83 nm | 98% | 335 µg/mL | 41% TSS | –
CCCCC/C=C\C/C=C\CCCCCCCC(=O)OCC(COC(=O)CCCCCCC/C=C\C/C=C\CCCCC)OC(=O)CCC(CCCCCC)OC(=O)NCCN(C)CC (stereo not shown) [Compound 40, 2-((4-(((2-(ethyl(methyl)amino)ethyl)carbamoyl)oxy)decanoyl)oxy)propane-1,3-diyl (9Z,9′Z,12Z,12′Z)-bis(octadeca-9,12-dienoate)] | 6.34 | – | – | – | – | 77% TSS | 9% TSS | 81.51 nm | 0.027 | 101.10 nm | 97% | 251 µg/mL | 31% TSS | –
CCCCC/C=C\C/C=C\CCCCCCCC(=O)OCC(COC(=O)CCCCCCC/C=C\C/C=C\CCCCC)OC(=O)CCC(CCCCCC)OC(=O)OCCCN1CCCC1 (stereo not shown) [Compound 45, 2-((4-(((3-(pyrrolidin-1-yl)propoxy)carbonyl)oxy)decanoyl)oxy)propane-1,3-diyl (9Z,9′Z,12Z,12′Z)-bis(octadeca-9,12-dienoate)] | 5.79 | 77.92 nm | 0.012 | 95.26 nm | 98% | – | 10.09 % TSS | – | – | – | – | – | – | Num Ave Size (nm) [2, 11]: 85.54 nm; PDI [2, 11]: 0.021; Z-Ave Size (nm) [2, 11]: 102.70 nm; Num Avg Size (nm) [2, 12]: 83.48 nm; PDI [2, 12]: 0.052; Z-Avg Size (nm) [2, 12]: 101.00 nm; Encapsulation (%) [3, 11]: 99%; Encapsulation (%) [3, 12]: 95%; Serum TTR % TSS ([4]; mouse serum, relative to TSS control of same experiment, dose 0.03 mpk, 0.03 mg/kg): 78.39 % TSS and 43.435 % TSS
